Results published in patent US20250115600A1, “COVALENT MODIFIERS OF AKT1 AND USES THEREOF” (Terremoto Biosciences, Inc., priority 2022, published 2025).

Key:
Experiment in all cases: Live cell target engagement (NanoBRET) in HEK293 cells
Type in all cases: cell-based
[1] = target: AKT1 WT (Homo sapiens (Human), UniProt P31749); conditions: HEK293, 2 hours at 37° C.
[2] = target: AKT1 E17K (Homo sapiens (Human), UniProt P31749, E17K); conditions: for IC50: HEK293, 2 hours at 37° C.
[3] = target: AKT2 (Homo sapiens (Human), UniProt P31751); conditions: HEK293, 2 hours at 37° C.
Sequence of AKT2 (P31751 whole entry): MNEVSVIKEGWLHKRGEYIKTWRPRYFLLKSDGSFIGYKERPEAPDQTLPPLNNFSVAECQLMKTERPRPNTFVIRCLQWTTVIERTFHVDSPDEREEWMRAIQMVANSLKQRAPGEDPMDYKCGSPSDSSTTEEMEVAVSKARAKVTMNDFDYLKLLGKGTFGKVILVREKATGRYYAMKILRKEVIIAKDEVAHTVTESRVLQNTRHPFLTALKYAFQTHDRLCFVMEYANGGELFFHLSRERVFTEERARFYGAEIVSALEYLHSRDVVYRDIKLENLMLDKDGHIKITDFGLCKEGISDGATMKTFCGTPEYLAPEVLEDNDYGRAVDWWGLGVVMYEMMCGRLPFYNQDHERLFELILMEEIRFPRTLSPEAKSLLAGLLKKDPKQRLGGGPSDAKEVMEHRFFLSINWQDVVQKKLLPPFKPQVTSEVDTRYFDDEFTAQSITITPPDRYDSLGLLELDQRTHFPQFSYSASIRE

Sequence of AKT1 WT (P31749 whole entry): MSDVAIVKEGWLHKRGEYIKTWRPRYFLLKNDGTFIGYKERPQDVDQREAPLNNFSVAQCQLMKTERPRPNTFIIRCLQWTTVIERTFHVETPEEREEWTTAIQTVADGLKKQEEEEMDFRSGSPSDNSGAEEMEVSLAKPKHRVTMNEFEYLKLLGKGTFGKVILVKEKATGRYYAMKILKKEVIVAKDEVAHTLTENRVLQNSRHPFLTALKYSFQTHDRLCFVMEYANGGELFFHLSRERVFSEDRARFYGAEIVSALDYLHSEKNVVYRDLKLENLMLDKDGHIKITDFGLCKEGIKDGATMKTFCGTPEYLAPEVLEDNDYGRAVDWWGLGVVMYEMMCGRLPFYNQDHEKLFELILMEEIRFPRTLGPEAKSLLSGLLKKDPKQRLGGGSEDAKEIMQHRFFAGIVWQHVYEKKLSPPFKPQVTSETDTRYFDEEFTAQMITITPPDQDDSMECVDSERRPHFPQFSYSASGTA
Sequence of AKT1 E17K (P31749 whole entry E17K): as the sequence (P31749 whole entry) above, with E17K counted along it

Row | SMILES | IC50 [1] [nM] | AKT1 E17K IC50: Selectivity vs AKT1 WT [2] | AKT1 E17K IC50: Selectivity vs AKT2 [2] | IC50 [2] [nM] | IC50 [3] [nM]
1 | COc1c(CCNCc2ccc(-n3c(-c4cccnc4N)nc4ccc(-c5ccccc5)nc43)cc2)ccc(C=O)c1O [Compound 76, 4-{2-[({4-[2-(2-aminopyridin-3-yl)-5-phenylimidazo[4,5-b]pyridin-3-yl]phenyl}methyl)amino]ethyl}-2-hydroxy-3-methoxybenzaldehyde] | 100 to 500 | 1.6 | 4.7 | 100 to 500 | 100 to 500
2 | Nc1ncccc1-c1nc2ccc(-c3ccccc3)nc2n1-c1ccc(CNC(=O)Cc2cnc(C=O)c(O)c2)cc1 [Compound 77, N-(4-(2-(2-aminopyridin-3-yl)-5-phenyl-3H-imidazo[4,5-b]pyridin-3-yl)benzyl)-2-(6-formyl-5-hydroxypyridin-3-yl)acetamide] | 100 to 500 | 4.3 | 39 | < 100 | > 500
3 | Nc1ncccc1-c1nc2cccnc2n1-c1ccc(CNC(=O)C(F)(F)c2ccc(C=O)c(O)c2)cc1 [Compound 78, N-(4-(2-(2-aminopyridin-3-yl)-3H-imidazo[4,5-b]pyridin-3-yl)benzyl)-2,2-difluoro-2-(4-formyl-3-hydroxyphenyl)acetamide] | 100 to 500 | 2.2 | 43 | < 100 | > 500
4 | Nc1ncccc1-c1nc2cccnc2n1-c1ccc(CNCCc2ccc(C=O)c(C(F)F)c2)cc1 [Compound 80, 4-{2-[({4-[2-(2-aminopyridin-3-yl)imidazo[4,5-b]pyridin-3-yl]phenyl}methyl)amino]ethyl}-2-(difluoromethyl)benzaldehyde] | 100 to 500 | 0.47 | 2.5 | 100 to 500 | > 500
5 | Nc1ncccc1-c1nc2ccc(-c3ccccc3)nc2n1-c1ccc(CNc2cc(-c3ccc(O)c(C=O)c3)ccn2)cc1 [Compound 81, 5-(2-((4-(2-(2-aminopyridin-3-yl)-5-phenyl-3H-imidazo[4,5-b]pyridin-3-yl)benzyl)amino)pyridin-4-yl)-2-hydroxybenzaldehyde] | 100 to 500 | 0.51 | 1.7 | 100 to 500 | 100 to 500
6 | Nc1ncccc1-c1nc2cccnc2n1-c1ccc(CNC(=O)C2(c3ccc(C=O)c(O)c3)CC2)cc1 [Compound 82, N-(4-(2-(2-aminopyridin-3-yl)-3H-imidazo[4,5-b]pyridin-3-yl)benzyl)-1-(4-formyl-3-hydroxyphenyl)cyclopropane-1-carboxamide] | > 500 | 29 | >400 | < 100 | > 500
7 | Nc1ncccc1-c1nc2cccnc2n1-c1ccc(CNC(=O)c2ccc(O)c(C=O)c2)cc1 [Compound 83, N-({4-[2-(2-aminopyridin-3-yl)imidazo[4,5-b]pyridin-3-yl]phenyl}methyl)-3-formyl-4-hydroxybenzamide] | 100 to 500 | 10 | 99 | < 100 | > 500
8 | Nc1ncccc1-c1nc2cccnc2n1-c1ccc(CNC(=O)c2ccc(C=O)c(O)c2)cc1 [Compound 84, N-({4-[2-(2-aminopyridin-3-yl)imidazo[4,5-b]pyridin-3-yl]phenyl}methyl)-4-formyl-3-hydroxybenzamide] | 100 to 500 | 0.22 | 4.8 | > 500 | > 500
9 | Nc1ncccc1-c1nc2cccnc2n1-c1ccc(CCC(=O)Nc2ccc(C=O)c(O)c2)cc1 [Compound 86, 3-(4-(2-(2-aminopyridin-3-yl)-3H-imidazo[4,5-b]pyridin-3-yl)phenyl)-N-(4-formyl-3-hydroxyphenyl)propanamide] | > 500 | 25 | 74 | < 100 | > 500
10 | Nc1ncccc1-c1nc2ccc(-c3ccccc3)nc2n1-c1ccc(CNc2cc(-c3ccc(C=O)c(O)c3)ccn2)cc1 [Compound 87, 4-(2-((4-(2-(2-aminopyridin-3-yl)-5-phenyl-3H-imidazo[4,5-b]pyridin-3-yl)benzyl)amino)pyridin-4-yl)-2-hydroxybenzaldehyde] | > 500 | 0.72 | 1.6 | > 500 | > 500
11 | CC(=O)Nc1c(C=O)ccc(CCNCc2ccc(-n3c(-c4cccnc4N)nc4cccnc43)cc2)c1F [Compound 89, N-(3-{2-[({4-[2-(2-aminopyridin-3-yl)imidazo[4,5-b]pyridin-3-yl]phenyl}methyl)amino]ethyl}-2-fluoro-6-formylphenyl)acetamide] | 100 to 500 | 0.14 | 2.1 | > 500 | > 500

Next, values leading:

Row | IC50 [1] [nM] | AKT1 E17K IC50: Selectivity vs AKT1 WT [2] | AKT1 E17K IC50: Selectivity vs AKT2 [2] | IC50 [2] [nM] | IC50 [3] [nM] | SMILES
12 | < 100 | 5.8 | 37 | < 100 | 100 to 500 | Nc1ncccc1-c1nc2ccc(-c3cccnc3)nc2n1-c1ccc(CNC(=O)c2ccc(O)c(C=O)c2)cc1 [Compound 71, N-(4-(2-(2-aminopyridin-3-yl)-5-(pyridin-3-yl)-3H-imidazo[4,5-b]pyridin-3-yl)benzyl)-3-formyl-4-hydroxybenzamide]
13 | < 100 | 4.4 | 88 | < 100 | > 500 | Nc1ncccc1-c1nc2ccc(-c3cccnc3)nc2n1-c1ccc(CNC(=O)Cc2ccc(C=O)c(O)c2F)cc1 [Compound 79, N-({4-[2-(2-aminopyridin-3-yl)-5-(pyridin-3-yl)imidazo[4,5-b]pyridin-3-yl]phenyl}methyl)-2-(2-fluoro-4-formyl-3-hydroxyphenyl)acetamide]
14 | < 100 | 1.3 | 6.5 | < 100 | 100 to 500 | Nc1ncccc1-c1nc2ccc(-c3ccccc3)nc2n1-c1ccc(CNC(=O)c2ccc(C=O)c(O)c2F)cc1 [Compound 85, N-({4-[2-(2-aminopyridin-3-yl)-5-phenylimidazo[4,5-b]pyridin-3-yl]phenyl}methyl)-2-fluoro-4-formyl-3-hydroxybenzamide]
15 | < 100 | 3.9 | 55 | < 100 | 100 to 500 | Nc1ncccc1-c1nc2ccc(-c3cccnc3)nc2n1-c1ccc(CNCCc2ccc(C=O)c(O)c2F)cc1 [Compound 88, 4-(2-((4-(2-(2-aminopyridin-3-yl)-5-(pyridin-3-yl)-3H-imidazo[4,5-b]pyridin-3-yl)benzyl)amino)ethyl)-3-fluoro-2-hydroxybenzaldehyde]
16 | < 100 | 0.65 | 1.6 | < 100 | < 100 | CC(=O)Nc1c(C=O)ccc(CCNCc2ccc(-n3c(-c4cccnc4N)nc4ccc(-c5ccccc5)nc43)cc2)c1F [Compound 90, N-(3-{2-[({4-[2-(2-aminopyridin-3-yl)-5-phenylimidazo[4,5-b]pyridin-3-yl]phenyl}methyl)amino]ethyl}-2-fluoro-6-formylphenyl)acetamide]
